pIC50: −log10 of the molar value.

In test [1] the test system is HeLa1.2.11 cells. The test is described as follows: cells. The conditions noted are these: read-out: IC50, suppressing proliferation of HeLa1.2.11 cells. In kind it is cell-based.
For test [2], the target named is T1, TRF2 (Homo sapiens, UniProt Q15554).
T1 sequence (Q15554 1-542): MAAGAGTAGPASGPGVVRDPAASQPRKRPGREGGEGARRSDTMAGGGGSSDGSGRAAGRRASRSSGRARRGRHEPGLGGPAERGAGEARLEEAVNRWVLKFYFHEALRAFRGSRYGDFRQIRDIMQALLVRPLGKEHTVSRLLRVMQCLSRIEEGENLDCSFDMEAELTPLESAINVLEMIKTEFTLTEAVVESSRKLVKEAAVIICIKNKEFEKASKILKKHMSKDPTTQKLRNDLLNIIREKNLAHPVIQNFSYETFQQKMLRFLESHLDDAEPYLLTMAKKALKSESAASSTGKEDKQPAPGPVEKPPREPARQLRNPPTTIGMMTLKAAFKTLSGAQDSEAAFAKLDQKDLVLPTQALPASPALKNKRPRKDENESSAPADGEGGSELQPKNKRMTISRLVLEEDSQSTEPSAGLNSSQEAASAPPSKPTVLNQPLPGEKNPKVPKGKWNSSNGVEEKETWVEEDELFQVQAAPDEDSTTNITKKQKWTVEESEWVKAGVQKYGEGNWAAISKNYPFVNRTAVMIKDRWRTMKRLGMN
The test is described as follows: biochemical. The format is binding. The conditions noted are these: read-out: inhibition rate (%) in DSE FRET assay.

Broadly, the inhibition is the relative decrease from the control value, in per cent. As for `COc1ccc(N(c2ccccc2)c2cc(C(C)(C)C)ccc2Oc2c([N+](=O)[O-])cc([N+](=O)[O-])cc2[N+](=O)[O-])cc1` [compound #207], the pIC50 in test [1] was 4.72. Further, the inhibition at 50 µM in test [2] turned out to be 23.7%.

As for `CC(=O)c1ccc(N(c2ccccc2)c2cc(C(C)(C)C)ccc2Oc2c([N+](=O)[O-])cc([N+](=O)[O-])cc2[N+](=O)[O-])cc1` [compound 201], the pIC50 in test [1] is 4.82. In addition, the inhibition at 50 µM in test [2] came out at 23%.

With `CC(=O)c1ccc(N(c2ccc(C(C)(C)C)cc2)c2ccccc2Oc2c([N+](=O)[O-])cc([N+](=O)[O-])cc2[N+](=O)[O-])cc1` [compound 227], the pIC50 in test [1] was 4.74. Besides, the inhibition at 50 µM in test [2] stood at 18.4%.

For the molecule `COc1ccc(N(c2ccccc2)c2ccccc2Oc2c([N+](=O)[O-])cc([N+](=O)[O-])cc2[N+](=O)[O-])cc1` [compound 204], the pIC50 in test [1] was 4.70. Also, the inhibition at 50 µM in test [2] came out at 20.4%.

Regarding `Cc1ccc(N(c2ccccc2)c2ccccc2Oc2c([N+](=O)[O-])cc([N+](=O)[O-])cc2[N+](=O)[O-])cc1` [compound 145], in test [1], the pIC50 was 4.59. In addition, the inhibition at 50 µM in test [2] came to 38.7%.

Regarding `CC(=O)c1ccc(N(c2ccccc2)c2ccccc2Oc2c([N+](=O)[O-])cc([N+](=O)[O-])cc2[N+](=O)[O-])cc1` [compound 168], the pIC50 in test [1] was 4.37. The inhibition at 50 µM in test [2] was 25.5%.

On to `CC(=O)c1ccc(N(c2ccc(C(C)=O)cc2)c2ccccc2Oc2c([N+](=O)[O-])cc([N+](=O)[O-])cc2[N+](=O)[O-])cc1` [compound 171], for which the pIC50 in test [1] is 4.32. In addition, the inhibition at 50 µM in test [2] worked out at 24.7%.

`CC(=O)c1ccc(N(c2ccc(C)cc2)c2ccccc2Oc2c([N+](=O)[O-])cc([N+](=O)[O-])cc2[N+](=O)[O-])cc1` [compound 225]: the pIC50 in test [1] is 4.55. For the same molecule, the inhibition at 50 µM in test [2] was 36.9%.

Take `Cc1cc([N+](=O)[O-])cc([N+](=O)[O-])c1Oc1ccccc1N(c1ccccc1)c1ccc(C(C)(C)C)cc1` [compound 228]: the pIC50 in test [1] is 4.70. Also, in test [2], the inhibition at 50 µM is 11.8%.

As to `O=[N+]([O-])c1cc([N+](=O)[O-])c(Oc2ccccc2N(c2ccccc2)c2ccccc2)c([N+](=O)[O-])c1` [compound 144], the pIC50 in test [1] is 4.51. The inhibition at 50 µM in test [2] was 38.3%.

For `CC(C)(C)c1ccc(Oc2c([N+](=O)[O-])cc([N+](=O)[O-])cc2[N+](=O)[O-])c(N(c2ccccc2)c2ccccc2)c1` [compound 192], in test [1], the pIC50 was 4.62. Moreover, in test [2], the inhibition at 50 µM came to 33.6%.

(Values after US20210024455A1 (priority 2018, published 2021).)
